Columns and labels:
Assay type in all cases: in vivo
[1] = test system: Diabrotica balteata (Corn Root Worm); assay: Example B2: Diabrotica balteata, sprayed maize sprouts, mortality and growth inhibition; settings: 96 h, application rate of 200 ppm, L2 larvae, 4 days after infestation, read-out: effect in at least one of the two categories (mortality or growth inhibition)
Experimental: (§1) Maize sprouts placed onto an agar layer in 24-well microtiter plates were treated with aqueous test solutions prepared from 10,000 ppm DMSO stock solutions by spraying. After drying, the plates were infested with L2 larvae (6 to 10 per well). The samples were assessed for mortality and growth inhibition in comparison to untreated samples 4 days after infestation.

[2] = test system: Diabrotica balteata (Corn Root Worm); assay: Example B3: Diabrotica balteata, sprayed maize sprouts, mortality; settings: 96 h, application rate of 200 ppm, L2 larvae, 4 days after infestation
Experimental: as §1, with “mortality” for “mortality and growth inhibition in comparison to untreated samples”

[3] = test system: Euschistus heros (Neotropical Brown Stink Bug); assay: Example B5: Euschistus heros, sprayed soybean leaves, mortality; settings: 120 h, application rate of 200 ppm, N2 nymphs, 5 days after infestation
Experimental: (§2) Soybean leaves on agar in 24-well microtiter plates were sprayed with aqueous test solutions prepared from 10,000 ppm DMSO stock solutions. After drying the leaves were infested with N2 nymphs. The samples were assessed for mortality 5 days after infestation.

[4] = test system: Euschistus heros (Neotropical Brown Stink Bug); assay: Example B6: Euschistus heros, sprayed soybean leaves, mortality and growth inhibition; settings: 120 h, application rate of 200 ppm, N2 nymphs, 5 days after infestation, read-out: effect in at least one of the two categories (mortality or growth inhibition)
Experimental: as §2, with “mortality and growth inhibition in comparison to untreated samples” for “mortality”

[5] = test system: Spodoptera littoralis (Egyptian Cotton Leaf Worm); assay: Example B14: Spodoptera littoralis, sprayed cotton leaf discs, anti-feeding effect; settings: foliar, 72 h, application rate of 200 ppm, L1 larvae, 3 days after infestation
In short: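 Cotton leaf discs on agar sprayed with aqueous test solutions made from 10,000 ppm DMSO stocks, dried, then infested with five L1 larvae. Anti-feeding effect scored 3 days after infestation against untreated discs; control counted when anti-feedant effect exceeds untreated.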

[6] = test system: Aedes aegypti (Yellow Fever Mosquito); assay: Example B23: Aedes aegypti, dry deposits in 12 well tissue culture plates, control; settings: application rate of 200 ppm in ethanol, adult females, after 48 h and/or 24 h
Experimental: Test solutions, at an application rate of 200 ppm in ethanol, were applied to 12 well tissue culture plates. Once the deposits were dry, five, two to five day old adult female Aedes aegypti were added to each well, and sustained with a 10% sucrose solution in a cotton wool plug. Assessment of knockdown was made one hour after introduction, and mortality was assessed at 24 and 48 hours after introduction.

CCS(=O)(=O)c1cc(C(C#N)CCBr)cnc1-c1cn2cnc(C(F)(F)F)cc2n1 (stereo not drawn) [Compound P13, 4-bromo-2-[5-ethylsulfonyl-6-[7-(trifluoromethyl)imidazo[1,2-c]pyrimidin-2-yl]-3-pyridyl]butanenitrile]
≥ 80%: percent effect (mortality or growth inhibition) at 200 ppm [1] | mortality at 200 ppm [2] | mortality at 200 ppm [3] | percent effect (mortality or growth inhibition) at 200 ppm [4] | pest or weed control at 200 ppm [5] | pest or weed control at 200 ppm [6]

— patent US10645928B2, “Pesticidally active polycyclic derivatives with sulfur containing substituents” (Syngenta Participations AG, priority 2014, dated 2020)
